Measurements reported in paper PMC7024253, “New Napyradiomycin Analogues from Streptomyces sp. Strain CA-271078” (Marine Drugs, 2019).
≈ marks a conversion by molar mass, not a printed value. Where two headings read alike, the source gives them in different places.

Experiments:
[1] = test system: E. coli ATCC 25922; assay: Antibacterial assay against E. coli; assay type: cell-based, Escherichia coli; settings: top concentration 96 μg/mL (64 μg/mL for 3 and 8); for MIC: Escherichia coli, ATCC25922, MIC = lowest concentration inhibiting ≥ 95% of growth; for MIC Ec: MIC = lowest concentration inhibiting ≥ 95% of growth
[2] = test system: methicillin-resistant S. aureus (MRSA) MB5393; assay: Antibacterial assay against MRSA; assay type: cell-based, Staphylococcus aureus; settings: for MIC: Staphylococcus aureus; for MIC / MIC MRSA: MIC = lowest concentration inhibiting ≥ 95% of growth after overnight incubation, top concentration 96 μg/mL (64 μg/mL for 3 and 8)
[3] = test system: human liver adenocarcinoma cell line (HepG2); assay: Cytotoxicity assay against HepG2; assay type: cell-based; settings: for IC50: 10 two-fold dilutions starting at 150, 100 (3, 8) or 30.0 μg/mL (1, 5)
[4] = test system: A. baumannii MB5973; assay: Antibacterial assay against A. baumannii; assay type: cell-based, Acinetobacter baumannii; settings: MIC = lowest concentration inhibiting ≥ 95% of growth, top concentration 96 μg/mL (64 μg/mL for 3 and 8); for MIC: Acinetobacter baumannii
[5] = test system: M. tuberculosis H37Ra; assay: Antibacterial assay against M. tuberculosis; assay type: cell-based, Mycobacterium tuberculosis; settings: for MIC: Mycobacterium tuberculosis; for MIC / MIC Mt: M. tuberculosis H37Ra, MIC = lowest concentration inhibiting ≥ 95% of growth, top concentration 96 μg/mL (64 μg/mL for 3 and 8)
[6] = test system: A. fumigatus ATCC46645; assay: Antifungal assay against A. fumigatus; assay type: cell-based, Aspergillus fumigatus; settings: A. fumigatus ATCC 46645, MIC = lowest concentration inhibiting ≥ 95% of growth, top concentration 96 μg/mL (64 μg/mL for 3 and 8); for MIC: Aspergillus fumigatus, ATCC46645
[7] = MRSA MB5393, read-out: MIC MRSA
[8] = Homo sapiens, HepG2, HepG-2 cytotoxicity
[9] = MRSA, read-out: MIC MRSA, MRSA MB5393

For C=C(C)C(O)CCC(C)=CCC12OC(C)(C)C(O)C=C1C(=O)c1c(O)cc(O)cc1C2=O (stereo not shown) [Compound 1, Napyradiomycin A3], which MIC [1] is on record?
Its MIC is > 96 µg/mL.

And the MIC [2, 7]?
The MIC was > 96 µg/mL.

And the IC50 [3, 8]?
The IC50 was > 67.8 µM.

And the MIC [4]?
The MIC was > 96 µg/mL.

How did the MIC [5] turn out when CC1(C)O[C@@]2(C[C@H]3C(C)(C)[C@@H](Cl)CC[C@]3(C)O)C(=O)c3cc(O)cc(O)c3C(=O)C2=C[C@H]1Cl [Compound 2, Napyradiomycin B7a] was run?
Its MIC is 12 to 24 µg/mL (≈ 24.1 to 48.2 µM).

And the MIC [6]?
Its MIC is > 96 µg/mL.

And the MIC [1]?
The MIC was > 96 µg/mL.

What about the MIC [2, 9] of the same molecule?
Its MIC is 3 to 48 µg/mL (≈ 6.03 to 96.5 µM).

What about the MIC [2, 7] of the same molecule?
The MIC was 48 µg/mL (≈ 96.5 µM).

What about the IC50 ([3]; HepG-2 cytotoxicity) of the same molecule?
The IC50 was 41.7 µM.

And the IC50 [3, 8]?
Its IC50 is < 50 µM.

What about the MIC [4] of the same molecule?
Its MIC is > 96 µg/mL.

With CC1(C)O[C@@]2(C[C@H]3C(C)(C)[C@@H](Cl)CC[C@]3(C)O)C(=O)c3cc(O)cc(O)c3C(=O)C2=C[C@@H]1Cl [Compound 3, Napyradiomycin B7b] as the molecule, how does the MIC [5] read?
Its MIC is > 64 µg/mL.

And the MIC [6]?
The MIC was > 64 µg/mL.

What about the MIC [1] of the same molecule?
The MIC was > 64 µg/mL.

And the MIC [2, 7]?
Its MIC is > 64 µg/mL.

And the IC50 [3, 8]?
Its IC50 is 110 µM.

And the MIC [4]?
Its MIC is > 64 µg/mL.

For CC1(C)O[C@@]2(C[C@H]3C(C)(C)[C@@H](Cl)CC[C@]3(C)O)C(=O)c3cc(O)cc(O)c3C(=O)[C@@]2(O)C[C@H]1Cl [Compound 4, Napyradiomycin SC], which MIC [5] is on record?
The MIC was 24 to 48 µg/mL (≈ 46.6 to 93.1 µM).

What about the MIC [6] of the same molecule?
Its MIC is > 96 µg/mL.

What about the MIC [1] of the same molecule?
The MIC was > 96 µg/mL.

And the MIC [2, 7]?
Its MIC is > 96 µg/mL.

And the IC50 [3, 8]?
The IC50 was 264 µM.

And the MIC [4]?
The MIC was > 96 µg/mL.

Which MIC [5] does the source give for CC1=CCC23OC(C)(C)C(Cl)CC2(Cl)C(=O)c2c(cc(O)cc2C3=O)OCC(C)=CCC1 (stereo not shown) [Compound 5, Napyradiomycin D1] here?
Its MIC is 24 to 48 µg/mL (≈ 50.1 to 100 µM).

And the “growth-inhibitory activity against Mycobacterium tuberculosis (in words)” value ([5]; abstract statement)?
The value was “significant growth-inhibitory activity”.

What about the MIC [1] of the same molecule?
The MIC was > 96 µg/mL.

What about the MIC [2, 9] of the same molecule?
Its MIC is 3 to 48 µg/mL (≈ 6.26 to 100 µM).

What about the MIC [2, 7] of the same molecule?
Its MIC is 12 to 24 µg/mL (≈ 25 to 50.1 µM).

What about the “growth-inhibitory activity against methicillin-resistant Staphylococcus aureus (in words)” value ([2]; abstract statement) of the same molecule?
The value was “significant growth-inhibitory activity”.

What about the “growth-inhibitory activity against HepG2 (in words)” value ([3]; abstract statement) of the same molecule?
Its value is “significant growth-inhibitory activity”.

What about the MIC [4] of the same molecule?
The MIC was > 96 µg/mL.

With CC1(C)OC2=C(CC1Cl)C(=O)c1c(O)cc(O)cc1C2=O (stereo not drawn) [Compound 7, 3-chloro-6,8-dihydroxy-8-α-lapachone] as the molecule, how does the “MIC Mt” value [5] read?
The value was 12 to 24 µg/mL.

And the “MIC Af” value [6]?
The value was >96 µg/mL.

And the “MIC Ec” value [1]?
Its value is >96 µg/mL.

What about the “MIC MRSA” value ([2]; MRSA MB5393) of the same molecule?
The value was 48 to 96 µg/mL.

And the IC50 ([3]; HepG-2 cytotoxicity)?
Its IC50 is 187 µM.

And the “MIC Ab” value [4]?
The value was >96 µg/mL.

How did the “MIC Mt” value [5] turn out when COc1cc(O)c2c(c1)C(=O)C1=C(CC(Cl)C(C)(C)O1)C2=O (stereo not drawn) [Compound 8, 3-chloro-6-hydroxy-8-methoxy-α-lapachone] was run?
The value was >64 µg/mL.

What about the “MIC Af” value [6] of the same molecule?
The value was >64 µg/mL.

What about the “MIC Ec” value [1] of the same molecule?
The value was >64 µg/mL.

What about the “MIC MRSA” value ([2]; MRSA MB5393) of the same molecule?
Its value is >64 µg/mL.

What about the IC50 ([3]; HepG-2 cytotoxicity) of the same molecule?
Its IC50 is 30.2 µM.

And the “MIC Ab” value [4]?
The value was >64 µg/mL.

For CC(=CCCC(C)=CCC12OC(C)(C)C(Cl)CC1(Cl)C(=O)c1c(O)cc(O)cc1C2=O)CO (stereo not shown) [Compound 10, 18-hydroxynapyradiomycin A1], which “MIC Mt” value [5] is on record?
The value was >96 µg/mL.

And the “MIC Af” value [6]?
The value was >96 µg/mL.

What about the “MIC Ec” value [1] of the same molecule?
The value was >96 µg/mL.

What about the “MIC MRSA” value ([2]; MRSA MB5393) of the same molecule?
Its value is 48 to 96 µg/mL.

And the IC50 ([3]; HepG-2 cytotoxicity)?
The IC50 was 64.4 µM.

And the “MIC Ab” value [4]?
The value was >96 µg/mL.

For CC1(C)O[C@@]2(C[C@H]3C(C)(C)[C@@H](Cl)CC[C@]3(C)O)C(=O)c3cc(O)cc(O)c3C(=O)[C@@]2(Cl)C[C@H]1Cl [Compound 13, napyradiomycin B4], which “MIC Mt” value [5] is on record?
The value was 12 to 24 µg/mL.

And the “MIC Af” value [6]?
The value was >96 µg/mL.

And the “MIC Ec” value [1]?
The value was >96 µg/mL.

What about the “MIC MRSA” value ([2]; MRSA MB5393) of the same molecule?
The value was 12 to 24 µg/mL.

And the “MIC Ab” value [4]?
Its value is >96 µg/mL.

What does the source list for napyradiomycin A2a [Compound 11]?
MIC Mt [5]: 48 to 96 µg/mL; MIC Af [6]: >96 µg/mL; MIC Ec [1]: >96 µg/mL; MIC MRSA ([2]; MRSA MB5393): 12 to 24 µg/mL; IC50 ([3]; HepG-2 cytotoxicity): 30.4 µM; MIC Ab [4]: >96 µg/mL

napyradiomycin A2b [Compound 12] was tested. Which “MIC Mt” value [5] did it give?
The value was 48 to 96 µg/mL.

What about the “MIC Af” value [6] of the same molecule?
Its value is >96 µg/mL.

And the “MIC Ec” value [1]?
The value was >96 µg/mL.

And the “MIC MRSA” value ([2]; MRSA MB5393)?
The value was 12 to 24 µg/mL.

And the IC50 ([3]; HepG-2 cytotoxicity)?
The IC50 was 28.6 µM.

And the “MIC Ab” value [4]?
The value was >96 µg/mL.

How did the “MIC Mt” value [5] turn out when napyradiomycin B2 [Compound 14] was run?
Its value is 24 to 48 µg/mL.

And the “MIC Af” value [6]?
The value was >96 µg/mL.

What about the “MIC Ec” value [1] of the same molecule?
The value was >96 µg/mL.

What about the “MIC MRSA” value ([2]; MRSA MB5393) of the same molecule?
The value was 3 to 6 µg/mL.

And the IC50 ([3]; HepG-2 cytotoxicity)?
Its IC50 is 27.1 µM.

And the “MIC Ab” value [4]?
The value was >96 µg/mL.

Which “MIC Mt” value [5] does the source give for napyradiomycin B5 [Compound 15] here?
The value was 24 to 48 µg/mL.

What about the “MIC Af” value [6] of the same molecule?
The value was >96 µg/mL.

What about the “MIC Ec” value [1] of the same molecule?
The value was >96 µg/mL.

What about the “MIC MRSA” value ([2]; MRSA MB5393) of the same molecule?
The value was 12 to 24 µg/mL.

And the IC50 ([3]; HepG-2 cytotoxicity)?
Its IC50 is 40.1 µM.

What about the “MIC Ab” value [4] of the same molecule?
The value was >96 µg/mL.

napyradiomycin B6 [Compound 9] was tested. Which “MIC Mt” value [5] did it give?
Its value is 12 to 24 µg/mL.

What about the “MIC Af” value [6] of the same molecule?
Its value is >96 µg/mL.

And the “MIC Ec” value [1]?
Its value is >96 µg/mL.

And the “MIC MRSA” value ([2]; MRSA MB5393)?
The value was 48 to 96 µg/mL.

And the IC50 ([3]; HepG-2 cytotoxicity)?
The IC50 was 71.2 µM.

And the “MIC Ab” value [4]?
The value was >96 µg/mL.
